Laboratory results from patent US8293374B2, “Test system for evaluating the compatibility of biologically active substances with copolymers” (Abbott GmbH & Co. KG, priority 2002, dated 2012).

What was measured:
[1] = Thermodynamic saturation solubility in test solvent, HPLC of clear supernatant after stirring 24 hours (method b); format: physicochemical
Method: Quantitative determination of the solubility is possible for example in the following way: • a) A concentration series is prepared by bringing various amounts of biologically active substance into contact with a constant amount of test solvent in parallel tests. After an equilibration time over a defined period at a given temperature, preferably with blending, e.g. stirring for 24 hours or ultrasound treatment for 30 min, the maximum concentration at which clear solutions are obtained is found. The solubility of the biologically active substance is between the concentration at which a clear solution is obtained but at the next concentration no clear solution is obtained. • b) An amount of the test solvent which is insufficient for completely dissolving is added to an amount of the biologically active substance, or further amounts of biologically active substance are added to the solution until the added amount no longer completely dissolves. After an equilibration time over a defined period at a given temperature, preferably with blending, e.g. stirring for 24 hours or ultrasound treatment for 30 min, a sample of the clear supernatant is taken. The mixture can for this purpose be previously centrifuged, e.g. using an ultracentrifuge at 8000 to 12 000 rpm. The concentration of the biologically active substance is determined in the sample of the clear supernatant, e.g. by high pressure liquid chromatography (HPLC). The value which is found corresponds to the solubility of the biologically active substance.
(§1) The copolymer was simulated by a mixture of 1,3-bis-(pyrrolidon-1-yl)butane and 1,4-diacetoxybutane in the ratio of 6:4 by weight.
In an alternative determination method, 150 mg of lopinavir were mixed with 350 mg of the test solvent and stirred at room temperature for 24 hours. The sample was then centrifuged at 12 000 rpm for one minute. The clear supernatant was investigated by HPLC.
Example 1b) was repeated but with the test solvent containing 5% by weight Cremophor RH 40.
Example 1b) was repeated with the abovementioned active ingredient premix. 21.3% by weight lopinavir was found in the clear supernatant by HPLC.
Example 3a) was repeated, using the concentrations indicated in the table below, and with the test solvent containing 10% by weight Cremophor RH 40. […] The HPLC method led to a result of 21.7% for lopinavir.

[2] = Maximum solubility in test solvent after ultrasound treatment, HPLC of supernatant (method c); format: physicochemical
Method: However, the active ingredient loading in solid solutions can be increased greatly by energy input. The maximum active ingredient loading achievable in a given matrix of a copolymer can be predicted with the test system of the invention by determining the solubility of the biologically active substance in accordance with one of the aforementioned methods a) or b), the equilibration being carried out by heating to a temperature of, for example, 140° C., in particular from 110 to 140° C., or by sonication.
as §1
The maximum solubility was determined by mixing 60 mg of lopinavir with 140 mg of the test solvent and treating with ultrasound at room temperature for 30 min. The solvent was then centrifuged at 10 000 rpm for 10 min. A sample of the clear supernatant was investigated by HPLC. […] The remaining amount of the sample was stored at room temperature for 4 weeks. Then a further sample of the supernatant was taken and investigated by HPLC. A concentration of 28.87% by weight was found.

Cc1cccc(C)c1OCC(=O)N[C@@H](Cc1ccccc1)[C@@H](O)C[C@H](Cc1ccccc1)NC(=O)[C@H](C(C)C)N1CCCNC1=O [Lopinavir]
solubility ([1]; 150 mg lopinavir + 350 mg test solvent 6:4, stirred at room temperature 24 hours, HPLC of clear supernatant): 24.9 % by weight
influence of Cremophor RH 40 on thermodynamic saturation solubility ([1]; 5% by weight Cremophor RH 40 in test solvent versus none): reduces the thermodynamic saturation solubility
solubility ([1]; HPLC of supernatant, test solvent containing 5% by weight Cremophor RH 40): 22.8%
lopinavir found in the clear supernatant ([1]; HPLC, lopinavir/ritonavir premix 4:1 by weight, test solvent 6:4): 21.3 % by weight
thermodynamic saturation solubility, HPLC method ([1]; lopinavir/ritonavir premix 4:1, test solvent containing 10% by weight Cremophor RH 40): 21.7%
influence of ritonavir on thermodynamic saturation solubility ([1]; presence of ritonavir (premix 4:1) versus lopinavir alone): reduces the thermodynamic saturation solubility
maximum solubility ([2]; 60 mg lopinavir + 140 mg test solvent, ultrasound at room temperature 30 min, HPLC of supernatant): 39.72 % by weight
concentration in supernatant after storage ([2]; after ultrasound treatment, sample stored at room temperature for 4 weeks, HPLC): 28.87 % by weight
